Test system: Wnt/β-catenin transcription
Experiment: TOPFlash Reporter Assay (Wnt-3A-stimulated HEK293 cells stably transfected with p8xTOPFlash)
Format: cell-based
Conditions: for IC50: Homo sapiens, read-out: Inhibition Wnt/β-catenin transcription TopFlash IC50; for IC50 / Inhibition Wnt/β-catenin transcription TopFlash, % inhibition: HEK293 TOPFlash cells, Wnt-3A conditioned medium, 8 hour treatment
Description: Wnt-3A conditioned medium was prepared using L WNT-3A cells (ATCC(CRL-2647™) purchased from ATCC. Conditioned medium was obtained following published protocols (http://www.atcc.org/Products/All/CRL-2647.aspx#culturemethod) (Chen, M. Y.; Wang, J. B.; Lu, J. Y.; Bond, M. C.; Ren, X. R.; Lyerly, H. K.; Barak, L. S.; Chen, W. Biochemistry 2009, 48, 10267). HEK293 cells were stably transfected with p8×TOPFlash, Renilla luciferase plasmid pRL-TK (Promega), and pLKO.1 as previously published (Chen, M. Y.; Wang, J. B.; Lu, J. Y.; Bond, M. C.; Ren, X. R.; Lyerly, H. K.; Barak, L. S.; Chen, W. Biochemistry 2009, 48, 10267). Stably transfected cells were seeded in 100 μl of cell growth medium/well in 96-well plates at 100% confluency. Fifty microliters of Wnt-3A conditioned medium containing the chemical compounds to be tested or DMSO was added to each well. After an 8 hour treatment, the cells were washed once with PBS and lysed with 55 μl of Passive Lysis Buffer supplied in the Dual-Luciferase Reporter Assay kit (Promega, Madison, Wis.). Twenty-five microliters of cell lysate was used for measuring luciferase activity in a 96-well plate reader (FluoStar Optima, BMG Labtech, Chicago, Ill.). Data were fit using GraphPad Prism (mean±SEM, n>=2).
Data is from a single experiment unless otherwise noted. Data that is an average of two experiments is noted as “n=2” while data that is an average of three or more experiments is presented as the average plus or minus the standard error of the mean.

IC50 [µM] | Compound | other results
> 12 | O=C(Nc1ncc([N+](=O)[O-])s1)c1ccccc1O [B, reference compound] | –
11.4 | CC(=O)Oc1ccccc1C(=O)Nc1ncc([N+](=O)[O-])s1 [C, reference compound] | –
8.8 | O=C(Nc1ncc([N+](=O)[O-])s1)c1cc(Cl)ccc1O [Compound 5, 5-chloro-2-hydroxy-N-(5-nitrothiazol-2-yl)benzamide] | –
0.49 | O=C(Nc1ccc([N+](=O)[O-])cc1Cl)c1cc(Cl)ccc1O [A, reference compound] | –
– | CC(=O)Oc1ccccc1C(=O)Nc1ncc([N+](=O)[O-])s1 [nitazoxanide, reference compound] | Inhibition of the Wnt/Frizzled signaling pathway (statement in words): inhibitor of the Wnt/Frizzled signaling pathway
1.67 | O=C(Nc1ccc(C(F)(F)F)cn1)c1cc(Cl)ccc1O [Compound 3, 5-chloro-2-hydroxy-N-(5-(trifluoromethyl)pyridin-2-yl)benzamide] | –
– | O=C(Nc1ccc([N+](=O)[O-])cn1)c1cc(Cl)ccc1O [Compound 2, 5-chloro-2-hydroxy-N-(5-nitropyridin-2-yl)benzamide] | Inhibition Wnt/β-catenin transcription TopFlash, % inhibition (at 2 μM): 75% inhibition at 2 μM
– | O=C(Nc1ccncc1Cl)c1cc(Cl)ccc1O [Compound 1, 5-chloro-N-(3-chloropyridin-4-yl)-2-hydroxybenzamide] | Inhibition Wnt/β-catenin transcription TopFlash, % inhibition (at 10 μM): 80% inhibition at 10 μM
17.4 | O=C(Nc1ncc(C(F)(F)F)cc1Cl)c1cc(Cl)ccc1O [Compound 4, 5-chloro-N-(3-chloro-5-(trifluoromethyl)pyridin-2-yl)-2-hydroxybenzamide] | –

From patent US20190070154A1, “NEW METHODS OF USE FOR AN ANTI-DIARRHEA AGENT” (Duke University, priority 2015, published 2019)
